# Biological target: T1, STAT6 (Homo sapiens, UniProt P42226)
# T1 construct: endogenous in cells; host or cells: MOLM-16, KU-812, SKNO1, MB231, L1236
# T1 sequence (P42226 1-847): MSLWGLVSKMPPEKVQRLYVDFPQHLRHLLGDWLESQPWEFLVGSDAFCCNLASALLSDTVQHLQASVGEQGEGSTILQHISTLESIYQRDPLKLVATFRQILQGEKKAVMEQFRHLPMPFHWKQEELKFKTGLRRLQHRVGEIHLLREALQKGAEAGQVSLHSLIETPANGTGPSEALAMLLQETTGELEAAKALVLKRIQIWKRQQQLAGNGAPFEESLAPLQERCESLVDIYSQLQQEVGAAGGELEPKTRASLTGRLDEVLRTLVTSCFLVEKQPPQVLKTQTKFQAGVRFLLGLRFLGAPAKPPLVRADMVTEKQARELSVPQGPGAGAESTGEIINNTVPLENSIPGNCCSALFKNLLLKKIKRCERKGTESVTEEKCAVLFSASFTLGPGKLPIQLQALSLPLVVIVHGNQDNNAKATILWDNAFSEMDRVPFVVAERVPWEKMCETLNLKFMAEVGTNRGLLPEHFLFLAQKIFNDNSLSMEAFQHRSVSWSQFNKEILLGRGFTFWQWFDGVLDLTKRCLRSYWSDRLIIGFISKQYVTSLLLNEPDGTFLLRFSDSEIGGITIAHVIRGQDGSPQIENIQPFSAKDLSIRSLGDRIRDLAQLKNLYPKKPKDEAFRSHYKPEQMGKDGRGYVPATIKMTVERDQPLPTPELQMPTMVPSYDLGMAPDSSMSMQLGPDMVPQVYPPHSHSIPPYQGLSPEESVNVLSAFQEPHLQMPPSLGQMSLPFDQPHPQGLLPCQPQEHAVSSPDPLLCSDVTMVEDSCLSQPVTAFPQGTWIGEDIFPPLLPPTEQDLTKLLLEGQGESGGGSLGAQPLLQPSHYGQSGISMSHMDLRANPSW
# Assay: Immunoblotting (Western blot) analysis of STAT6 degradation efficiency of degraders in treated cells
# Assay type: cell-based
# Details: L1236 cells, read-out: DC50 S6 L1236
# How it was run: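 Each data point uses roughly one million cells dosed as indicated; pellets are lysed on ice, freeze-thawed, and clarified. Reduced, denatured samples (95 °C, 5 min) run on SDS gels, then membranes receive rabbit mAbs to STAT5 or STAT6 plus mouse anti-GAPDH overnight, followed by dye-labelled secondaries for fluorescence imaging.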
row,Structure (SMILES),DC50
1,"Cc1ncsc1-c1ccc([C@H](C)NC(=O)[C@@H]2C[C@@H](O)CN2C(=O)[C@@H](NC(=O)CCCCCCCCNC(=O)CC(=O)N2CCN(C(=O)[C@@H](NC(=O)c3cc4cc(C(F)(F)P(=O)(O)O)ccc4s3)C(C)(C)C)[C@H](C(=O)N3CCC[C@H](c4ccccc4)C3)C2)C(C)(C)C)cc1 [Compound 459, (difluoro(2-(((S)-1-((S)-4-(3-((9-(((S)-1-((2S,4R)-4-hydroxy-2-(((S)-1-(4-(4-methylthiazol-5-yl)phenyl)ethyl)carbamoyl)pyrrolidin-1-yl)-3,3-dimethyl-1-oxobutan-2-yl)amino)-9-oxononyl)amino)-3-oxopropanoyl)-2-((R)-3-phenylpiperidine-1-carbonyl)piperazin-1-yl)-3,3-dimethyl-1-oxobutan-2-yl)carbamoyl)benzo[b]thiophen-5-yl)methyl)phosphonic acid]",> 10 µM
2,"O=C1CCC(N2Cc3cc(C#CCCCCCC(=O)N4CC[C@H]5CC[C@@H](C(=O)N6CCOC(c7ccc(F)c(Cl)c7)C6)N5C(=O)[C@@H](NC(=O)c5cc6cc(C(F)(F)P(=O)(O)O)ccc6s5)C4)ccc3C2=O)C(=O)N1 (stereo partly drawn) [Compound 575, ((2-(((5S,8S,10aR)-8-(2-(3-chloro-4-fluorophenyl)morpholine-4-carbonyl)-3-(8-(2-(2,6-dioxopiperidin-3-yl)-1-oxoisoindolin-5-yl)oct-7-ynoyl)-6-oxodecahydropyrrolo[1,2-a][1,5]diazocin-5-yl)carbamoyl)benzo[b]thiophen-5-yl)difluoromethyl)phosphonic acid]",> 10 µM

# Same assay, conditions: MOLM-16 cells, class symbols, read-out: DC50 S6 MOLM-16
row,Structure (SMILES),DC50
1,"CC(C)(C)[C@H](NC(=O)c1cc2cc(C(F)(F)P(=O)(O)O)ccc2s1)C(=O)N1CCN(C(=O)CC(=O)NCCCCCCCCC#Cc2cccc3c2C(=O)N(C2CCC(=O)NC2=O)C3=O)C[C@H]1C(=O)N1CCO[C@H](c2ccccc2)C1 (stereo partly drawn) [Compound 517, ((2-(((2S)-1-((2S)-4-(3-((10-(2-(2,6-dioxopiperidin-3-yl)-1,3-dioxoisoindolin-4-yl)dec-9-yn-1-yl)amino)-3-oxopropanoyl)-2-((R)-2-phenylmorpholine-4-carbonyl)piperazin-1-yl)-3,3-dimethyl-1-oxobutan-2-yl)carbamoyl)benzo[b]thiophen-5-yl)difluoromethyl)phosphonic acid]",> 10 µM
2,"CC(C)(C)[C@H](NC(=O)c1cc2cc(C(F)(F)P(=O)(O)O)ccc2s1)C(=O)N1CCN(C(=O)CC(=O)NCC#Cc2ccc3c(c2)C(=O)N(C2CCC(=O)NC2=O)C3=O)C[C@H]1C(=O)N1CCC[C@H](c2ccccc2)C1 (stereo partly drawn) [Compound 522, ((2-(((2S)-1-((2S)-4-(3-((3-(2-(2,6-dioxopiperidin-3-yl)-1,3-dioxoisoindolin-5-yl)prop-2-yn-1-yl)amino)-3-oxopropanoyl)-2-((R)-3-phenylpiperidine-1-carbonyl)piperazin-1-yl)-3,3-dimethyl-1-oxobutan-2-yl)carbamoyl)benzo[b]thiophen-5-yl)difluoromethyl)phosphonic acid]",> 10 µM
3,"Cc1ncsc1-c1ccc([C@H](C)NC(=O)[C@@H]2C[C@@H](O)CN2C(=O)[C@@H](NC(=O)CCNC(=O)COc2ccc3c(c2)CN(C(=O)[C@@H](NC(=O)c2cc4cc(C(F)(F)P(=O)(O)O)ccc4s2)C(C)(C)C)[C@H](C(=O)N2CCC[C@H](c4ccccc4)C2)C3)C(C)(C)C)cc1 [Compound 471, (difluoro(2-(((S)-1-((S)-7-(2-((3-(((S)-1-((2S,4R)-4-hydroxy-2-(((S)-1-(4-(4-methylthiazol-5-yl)phenyl)ethyl)carbamoyl)pyrrolidin-1-yl)-3,3-dimethyl-1-oxobutan-2-yl)amino)-3-oxopropyl)amino)-2-oxoethoxy)-3-((R)-3-phenylpiperidine-1-carbonyl)-3,4-dihydroisoquinolin-2(1H)-yl)-3,3-dimethyl-1-oxobutan-2-yl)carbamoyl)benzo[b]thiophen-5-yl)methyl)phosphonic acid]",> 10 µM
4,"Cc1ncsc1-c1ccc([C@H](C)NC(=O)[C@@H]2C[C@@H](O)CN2C(=O)[C@@H](NC(=O)CCCCCCCCNC(=O)CC(=O)N2CCN(C(=O)[C@@H](NC(=O)c3cc4cc(C(F)(F)P(=O)(O)O)ccc4s3)C(C)(C)C)[C@H](C(=O)N3CCC[C@H](c4ccccc4)C3)C2)C(C)(C)C)cc1 [Compound 459, (difluoro(2-(((S)-1-((S)-4-(3-((9-(((S)-1-((2S,4R)-4-hydroxy-2-(((S)-1-(4-(4-methylthiazol-5-yl)phenyl)ethyl)carbamoyl)pyrrolidin-1-yl)-3,3-dimethyl-1-oxobutan-2-yl)amino)-9-oxononyl)amino)-3-oxopropanoyl)-2-((R)-3-phenylpiperidine-1-carbonyl)piperazin-1-yl)-3,3-dimethyl-1-oxobutan-2-yl)carbamoyl)benzo[b]thiophen-5-yl)methyl)phosphonic acid]",> 10 µM
5,"CC(C)(C)[C@H](NC(=O)c1cc2cc(C(F)(F)P(=O)(O)O)ccc2s1)C(=O)N1Cc2cc(OCC(=O)NCCCCCCCCC#Cc3ccc4c(c3)C(=O)N(C3CCC(=O)NC3=O)C4=O)ccc2C[C@H]1C(=O)N1CCC[C@H](c2ccccc2)C1 (stereo partly drawn) [Compound 560, ((2-(((2S)-1-((3S)-7-(2-((10-(2-(2,6-dioxopiperidin-3-yl)-1,3-dioxoisoindolin-5-yl)dec-9-yn-1-yl)amino)-2-oxoethoxy)-3-((R)-3-phenylpiperidine-1-carbonyl)-3,4-dihydroisoquinolin-2(1H)-yl)-3,3-dimethyl-1-oxobutan-2-yl)carbamoyl)benzo[b]thiophen-5-yl)difluoromethyl)phosphonic acid]",> 10 µM
6,"CC(C)(C)[C@H](NC(=O)c1cc2cc(C(F)(F)P(=O)(O)O)ccc2s1)C(=O)N1C[C@@H](OCCCCCCCC#Cc2cccc3c2CN(C2CCC(=O)NC2=O)C3=O)C[C@H]1C(=O)N1CCO[C@H](c2ccccc2)C1 (stereo partly drawn) [Compound 595, ((2-(((2S)-1-((2S,4S)-4-((9-(2-(2,6-dioxopiperidin-3-yl)-1-oxoisoindolin-4-yl)non-8-yn-1-yl)oxy)-2-((R)-2-phenylmorpholine-4-carbonyl)pyrrolidin-1-yl)-3,3-dimethyl-1-oxobutan-2-yl)carbamoyl)benzo[b]thiophen-5-yl)difluoromethyl)phosphonic acid]",< 0.1 µM
7,"CC(C)(C)[C@H](NC(=O)c1cc2cc(C(F)(F)P(=O)(O)O)ccc2s1)C(=O)N1CCN(C(=O)CC(=O)NCCCCC#Cc2ccc3c(c2)C(=O)N(C2CCC(=O)NC2=O)C3=O)C[C@H]1C(=O)N1CCO[C@H](c2ccccc2)C1 (stereo partly drawn) [Compound 514, ((2-(((2S)-1-((2S)-4-(3-((6-(2-(2,6-dioxopiperidin-3-yl)-1,3-dioxoisoindolin-5-yl)hex-5-yn-1-yl)amino)-3-oxopropanoyl)-2-((R)-2-phenylmorpholine-4-carbonyl)piperazin-1-yl)-3,3-dimethyl-1-oxobutan-2-yl)carbamoyl)benzo[b]thiophen-5-yl)difluoromethyl)phosphonic acid]",> 10 µM
8,"O=C1CCC(N2Cc3cc(C#CCCCCCC(=O)N4CC[C@H]5CC[C@@H](C(=O)N6CCOC(c7ccc(F)c(Cl)c7)C6)N5C(=O)[C@@H](NC(=O)c5cc6cc(C(F)(F)P(=O)(O)O)ccc6s5)C4)ccc3C2=O)C(=O)N1 (stereo partly drawn) [Compound 575, ((2-(((5S,8S,10aR)-8-(2-(3-chloro-4-fluorophenyl)morpholine-4-carbonyl)-3-(8-(2-(2,6-dioxopiperidin-3-yl)-1-oxoisoindolin-5-yl)oct-7-ynoyl)-6-oxodecahydropyrrolo[1,2-a][1,5]diazocin-5-yl)carbamoyl)benzo[b]thiophen-5-yl)difluoromethyl)phosphonic acid]",> 10 µM
9,"CC(C)(C)[C@H](NC(=O)c1cc2cc(C(F)(F)P(=O)(O)O)ccc2s1)C(=O)N1CCN(C(=O)CC(=O)NCCCCCCCCC#Cc2ccc3c(c2)C(=O)N(C2CCC(=O)NC2=O)C3=O)C[C@H]1C(=O)N1CCC[C@H](c2ccccc2)C1 (stereo partly drawn) [Compound 532, ((2-(((2S)-1-((2S)-4-(3-((10-(2-(2,6-dioxopiperidin-3-yl)-1,3-dioxoisoindolin-5-yl)dec-9-yn-1-yl)amino)-3-oxopropanoyl)-2-((R)-3-phenylpiperidine-1-carbonyl)piperazin-1-yl)-3,3-dimethyl-1-oxobutan-2-yl)carbamoyl)benzo[b]thiophen-5-yl)difluoromethyl)phosphonic acid]",> 10 µM
10,"CC(C)(C)[C@H](NC(=O)c1cc2cc(C(F)(F)P(=O)(O)O)ccc2s1)C(=O)N1CCN(C(=O)CC(=O)NCCCCCC#Cc2ccc3c(c2)C(=O)N(C2CCC(=O)NC2=O)C3=O)C[C@H]1C(=O)N1CCO[C@H](c2ccccc2)C1 (stereo partly drawn) [Compound 516, ((2-(((2S)-1-((2S)-4-(3-((7-(2-(2,6-dioxopiperidin-3-yl)-1,3-dioxoisoindolin-5-yl)hept-6-yn-1-yl)amino)-3-oxopropanoyl)-2-((R)-2-phenylmorpholine-4-carbonyl)piperazin-1-yl)-3,3-dimethyl-1-oxobutan-2-yl)carbamoyl)benzo[b]thiophen-5-yl)difluoromethyl)phosphonic acid]",> 10 µM
11,"CC(C)(C)[C@H](NC(=O)c1cc2cc(C(F)(F)P(=O)(O)O)ccc2s1)C(=O)N1Cc2cc(OCC(=O)NCCCC#Cc3ccc4c(c3)C(=O)N(C3CCC(=O)NC3=O)C4=O)ccc2C[C@H]1C(=O)N1CCC[C@H](c2ccccc2)C1 (stereo partly drawn) [Compound 554, ((2-(((2S)-1-((3S)-7-(2-((5-(2-(2,6-dioxopiperidin-3-yl)-1,3-dioxoisoindolin-5-yl)pent-4-yn-1-yl)amino)-2-oxoethoxy)-3-((R)-3-phenylpiperidine-1-carbonyl)-3,4-dihydroisoquinolin-2(1H)-yl)-3,3-dimethyl-1-oxobutan-2-yl)carbamoyl)benzo[b]thiophen-5-yl)difluoromethyl)phosphonic acid]",> 10 µM

# Reference: patent US20230295197A1, “STAT5 and STAT6 Degraders and Uses Thereof” (REGENTS OF THE UNIVERSITY OF MICHICAN, priority 2022, published 2023)
